Patent US9688620B2, “Methods for treating fibromyalgia syndrome” (SK Biopharmaceuticals Co., Ltd., priority 2009, dated 2017)

Assays:
[1] = tested on: hypocretin cell ablated narcoleptic mice (prepororexin/ataxin-3 transgenic); assay: Sleep parameters (EEG/EMG polygraph) in narcoleptic mice; assay type: in vivo; conditions: for wake-promoting effects (magnitude): active (dark) period; for wakefulness (dose dependence): active period (dosed PO at ZT 14); for wake-promoting effects: resting period (dosed PO at ZT 2); for duration of continuous wakefulness: most narcoleptic mice
Source text: (§1) The polygraph signal (EEG and EMG) was captured with SleepSign (Kissel Comtech), and the sleep stage was visually scored with 10 sec epoch for wakefulness, non-REM sleep and REM sleep. Scoring criteria are: Wakefulness is characterized by desynchronized low-amplitude, mixed frequency (>4 Hz) EEG and high EMG activity. Rhythmic alpha (8-9 Hz) wave (with high EMG activities) may also appear. Non-REM is characterized by synchronized, high-amplitude, low-frequency (0.25-4 Hz) with reduced EMG activity (compared to wakefulness). EEG activity in REM sleep is similar to that in wakefulness, with desynchronized, mixed frequency low amplitude waves. Rhythmic alpha (8-9 Hz) wave with reduced EMG activities may also appear. […] activity during REM sleep is reduced even further and in many cases, completely absent. Some muscle twitching may be apparent in the EMG trace during REM sleep.
(§2) Three drug doses of the test compound (50, 100 and 150 mg/kg PO) plus vehicle, was orally administered at ZT 2 (2 hours after light on) or ZT 14 (2 hours after light off), and the effects on sleep was monitored for 6 hours after the drug administration (the sleep data was collected for 30 hours after the drug injection, and are available for further analysis). The doses for modafinil were 50 and 200 mg/kg PO (plus vehicle), and modafinil was also administered at ZT 2 and ZT14.
(§3) If the polygraph signals of some mice were not sufficient to score the sleep stage with accuracy (especially bad EMG), data from these animals were excluded, and the minimum of 5 animals (except for the highest dose of the test compound in wild-type mice in dark period, n=4) were included for the data analysis and number of animals were indicated in the figures.
(§4) Effects of test compound and modafinil on the amount of wake, non-REM sleep, REM sleep (cumulative seconds), number of episodes for each sleep stage during 6 hours, mean wake/sleep-bout lengths (seconds) were analyzed in each animal and the mean of each parameter was calculated in each genotype. The effects of compounds on wake and sleep amounts are useful to evaluate the wake promoting potency, and the number of episodes for each sleep stage and the mean wake/sleep bout length are parameters for evaluating the sleep fragmentation. Amphetamine and modafinil, two main wake-promoting compounds currently used for the treatment of EDS associated with various etiologies (narcolepsy, idiopathic hypersomnia and secondary EDS), are known to increase wake time and prolong wake bout length in normal and EDS conditions.
(§5) A comparison of the effects between hypocretin deficient and wild-type mice is very useful in determining if the wake-promotion of the test compound is dependent on the availability of hypocretins, and if there is a possible change in the sensitivity of the receptive mechanisms of test compound in narcoleptic mice due to the hypocretin ligand deficiency.

[2] = tested on: littermate wild-type mice; assay: Sleep parameters (EEG/EMG polygraph) in littermate wild-type mice; assay type: in vivo; conditions: for wake-promoting effects: resting period (dosed PO at ZT 2); for duration of continuous wakefulness: most wild-type mice
Source text: as §1, §2, §3, §4, §5

[3] = tested on: male Wistar rats; assay: Forced swimming test in rats; assay type: in vivo; conditions: 4 hours post-treatment
Description: (§6) Male CD-1 mice (16-24 g) and male Wistar rats (90-125 g) were utilized in these experiments. The test compound (10, 15 and 30 mg/kg) was dissolved in physiological saline (0.9%) and administered orally PO in a volume of 1 mL/100 g body weight.
(§7) Mice and rats were placed in glass cylinders (1000 ml beakers; height 14 cm, diameter 11.5 cm) and (4000 ml beakers; height 24.5 cm, diameter 18.0 cm) respectively, containing water (25 degrees Celsius) up to a height of 9.0 cm for mice and 19.0 for rats. […] Immobility was defined as lack of movement, such as floating in the water with little or no movement of hind legs. Duration of immobility was timed with a stopwatch and recorded. In some experiments, mice or rats were allowed to swim for 6 or 10 minutes, respectively, one day prior to the forced swimming experiment.
(§8) In the single dose test, mice or rats were given test compound or 0.9% NaCl and placed in glass cylinders 1 hour or 4 hours post-treatment, respectively. In the multiple dose experiments, mice were dosed twice a day for 3 days and given an additional dose on Day 4. In addition, the mice were placed in the glass cylinders containing water at 25 degrees Celsius and allowed to swim for six minutes on Day 3. Statistical evaluation was performed using a computer program based on probit analysis. Statistical significance was determined using Student's t-test at a P value of <0.05.

[4] = tested on: Male CD-1 mice; assay: Forced swimming test in mice; assay type: in vivo; conditions: for mean duration of immobility: mice
Description: as §6, §7, §8

[5] = tested on: rats with sciatic nerve ligation; assay: Thermal hyperalgesia (hindpaw withdrawal latency, plantar tester) in rats with sciatic nerve ligation; assay type: in vivo, Sprague-Dawley rats; conditions: 30 mg/kg IP; for mean paw withdrawal latency: n = 6
Description: Young adult male Sprague-Dawley rats (CD(SD)IGS, 150-200 g) were initially anesthetized with isoflurane in O2 by a mask and the surgical procedure was performed according to the method described by Bennett and Xie (1988). Briefly, the right sciatic nerves were loosely tied using ligatures. All experiments were conducted in accordance with the guidelines of the International Association for the Study of Pain. The behavioral tests were conducted at least 14 days postoperatively.
The test compound was dissolved in saline and administered intraperitoneally at 30 mg/kg to animals in a volume of 3 mL/kg body weight.
To test for thermal hyperalgesia, the thermal response was determined by the hindpaw withdrawal latency, using a plantar tester (UGO BASILE, Italy), and a modified method of Hargreaves et al. (1988). Rats were allowed to acclimate within plastic enclosures on a clear glass plate maintained at room temperature. A radiant heat source (intensity 90) was controlled with a timer and focused onto the plantar surface of the rat right hind paw encompassing the glabrous skin. Paw withdrawal stopped both heat source and timer. A maximal cut-off 30 sec was used to prevent tissue damage. Rats were assessed for thermal hyperalgesia predose (0 hr) and at 1, 4 and 8 hours after 30 mg/kg test compound administration.
Data are expressed as mean±standard error of mean (SEM). The values of behavioral signs of neuropathic pain at various postoperative time points were compared with those of the preoperative control period by a repeated-measure One-way Analysis of Variance (followed by Dunnett's post-hoc test). P-values less than 0.05 were considered to be significant.

[6] = resting period, genotypes not distinguished

## NC(=O)C[S+]([O-])C(c1ccccc1)c1ccccc1 (stereo not drawn) [modafinil, reference compound]
[1]; 200 mg/kg (high dose), active period, narcoleptic mice
  wake amount: did not bring the wake amount to that of the wild-type baseline levels
[1]; narcoleptic mice
  wake-promoting effects (magnitude): much weaker
  wakefulness (dose dependence): dose-dependently increase
  wake-promoting effects: modest
[1]; modafinil 200 mg/kg PO, resting period, genotypes not distinguished
  dose of test compound to which the wake promoting effect of modafinil roughly corresponds: ~50 mg/kg
[1]; [6]
  REM sleep: did not strongly reduce REM sleep
[2]; wild-type mice
  wake-promoting effects: modest

## NC(=O)OC[C@H](N)Cc1ccccc1 [test compound, O-carbamoyl-(D)-phenylalaminol]
[1]; 50 mg/kg PO, resting period
  duration of continuous wakefulness: up to 3 hours
[1]; 100 mg/kg PO, resting period
  duration of continuous wakefulness: ≤ 4 h
[1]; 100 mg/kg, active period, narcoleptic mice
  wake amounts: brought up to the levels of wild-type mice
[1]; 150 mg/kg PO, resting period
  duration of continuous wakefulness: ≤ 5 h
[1]; 150 mg/kg, active period, narcoleptic mice
  wake amounts: brought up to the levels of wild-type mice
[1]; 50, 100, 150 mg/kg PO, resting period, narcoleptic mice
  Non-REM and REM sleep during the period of continuous wakefulness: completely suppressed
[1]; 50-150 mg/kg PO
  sleep patterns of narcoleptic mice: normalize
[1]; 50-150 mg/kg PO, narcoleptic mice
  bouts of wakefulness: significantly increased
[1]; narcoleptic mice
  wake-promoting effects (magnitude): much pronounced
  wakefulness (dose dependence): dose-dependently increased
  wake-promoting effects: Very potent
[1]; active period, narcoleptic mice
  amounts of non-REM and REM sleep: brought down to the levels of wild-type mice
[1]; polygraphic assessments, resting period, genotypes not distinguished
  sleep that occurred after the prolonged wakefulness: normal
[1]; [6]
  REM sleep: potently reduced
[1]; resting period, wild-type and narcoleptic mice not distinguished
  EEG patterns after administration: no abnormal EEG patterns
[3]; 10 mg/kg PO, control 74 sec, not statistically significant
  mean duration of immobility: 62 s
[3]; 15 mg/kg PO, control 65 sec, not statistically significant
  mean duration of immobility: 39 s
[3]; 30 mg/kg PO, control 38 sec, significant
  mean duration of immobility: 9 s
[2]; 50 mg/kg PO, resting period
  duration of continuous wakefulness: up to 3 hours
[2]; 100 mg/kg PO, resting period
  duration of continuous wakefulness: ≤ 4 h
[2]; 150 mg/kg PO, resting period
  duration of continuous wakefulness: ≤ 5 h
[2]; 50, 100, 150 mg/kg PO, resting period, wild-type mice
  Non-REM and REM sleep during the period of continuous wakefulness: completely suppressed
[2]; 50-150 mg/kg PO, wild-type mice
  bouts of wakefulness: significantly increased
[2]; active (dark) period, wild-type mice, high baseline wakefulness
  wake-promoting effects (magnitude): only small effects
[2]; active period (dosed PO at ZT 14), wild-type mice
  wakefulness (dose dependence): dose-dependently increased
[2]; wild-type mice
  wake-promoting effects: Very potent
[4]; Mus musculus, multiple dosing PO, mice (twice a day for 3 days plus a dose on Day 4), read-out: ED50 (reduction in mean immobility time)
  ED50: 5.5 mg/kg
[4]; multiple dosing 3 mg/kg PO, control 85 sec
  mean duration of immobility: 63 s
[4]; multiple dosing 5 mg/kg PO, control 136 sec, significant
  mean duration of immobility: 73 s
[4]; multiple dosing 8 mg/kg PO, control 114 sec, significant
  mean duration of immobility: 39 s
[4]; single dose 10 mg/kg PO, control 131 sec
  mean duration of immobility: 101 s
[4]; single dose 15 mg/kg PO, control 154 sec, significant
  mean duration of immobility: 80 s
[4]; single dose 30 mg/kg PO, control 132 sec, significant
  mean duration of immobility: 30 s
[5]; 0 hr (predose baseline)
  mean paw withdrawal latency: 5.17 s
[5]; 1 hr post-injection, P < 0.01 vs 0 hr
  mean paw withdrawal latency: 6.33 s
[5]; 4 hr post-injection, P < 0.05 vs 0 hr
  mean paw withdrawal latency: 6.06 s
[5]; 8 hr post-injection
  mean paw withdrawal latency: 5.63 s
[5]; vs pre-injection (0 hr) latency
  paw withdrawal latency to a thermal stimulus (in words): significantly increased
[5]; 1 hr vs 0 hr latency
  % of Antagonism: 0.14**(22.3%
[5]; 4 hr vs 0 hr latency
  % of Antagonism: 0.21*(17.2%)
[5]; 8 hr vs 0 hr latency
  % of Antagonism: 0.16(8.8%)
